Experiments:
[1] = Microsomal half-life / microsomal clearance, human liver microsomes; assay type: in vitro ADME; conditions: 0.5 μM test substance, 0.25 mg microsomal protein/ml, pH 7.4, 37° C.
Protocol: (§1) The metabolic stability of the compounds of the invention was determined in the following assay.
(§2) The test substances were incubated in a concentration of 0.5 μM as follows:
(§3) 0.5 μM test substance are preincubated together with liver microsomes from different species (from rat, human or other species) (0.25 mg of microsomal protein/ml) in 0.05 M potassium phosphate buffer of pH 7.4 in microtiter plates at 37° C. for 5 min. The reaction is started by adding NADPH (1 mg/mL). After 0, 5, 10, 15, 20 and 30 min, 50 μl aliquots are removed, and the reaction is immediately stopped and cooled with the same volume of acetonitrile. The samples are frozen until analyzed. The remaining concentration of undegraded test substance is determined by MSMS. The half-life (T1/2) is determined from the gradient of the signal of test substance/unit time plot, it being possible to calculate the half-life of the test substance, assuming first order kinetics, from the decrease in the concentration of the compound with time. The microsomal clearance (mCl) is calculated from mCl=ln 2/T1/2/(content of microsomal protein in mg/ml)×1000 [ml/min/mg] (modified from references: Di, The Society for Biomoleculur Screening, 2003, 453-462; Obach, DMD, 1999 vol 27. N 11, 1350-1359).

PDE10A = PDE10A (Homo sapiens (Human), UniProt Q9Y233); assay: Measurement of PDE activity (HTRF cAMP kit, recombinant PDE); assay type: biochemical; conditions: recombinant PDE10, 20 nM cyclic nucleotide substrate, 60 minutes at 29 C
Protocol: The recombinant PDE proteins are used in in vitro enzymatic reaction for measurement of PDE activity. These recombinant proteins, including PDE10A (human, rat and mouse PDE10) and isoforms of PDEs 1, 3, 4, and 5, were purchased from commercial vendor BPS Bioscience. The enzymatic activity of PDEs was determined by cAMP measurement kit from CisBio (IBA) using HTRF technology.
The PDE enzymatic reaction was carried out in assay buffer (20 mM Tris-HCl pH7.5, 10 mM MgCl2, 0.1% bovine serum albumin) containing enzyme and substrate. […] The substrate cyclic nucleotide (cAMP or cGMP) concentration used in the assay was 20 nM for PDE10, and 100 nM for other PDEs. The inhibitory effect of compound was determined by incubating various concentration of inhibitor in the enzymatic assay. […] Next, the compound at varying concentration was mixed with PDE enzyme. The reaction was initiated by addition of cyclic nucleotide substrate, and incubated for 60 minutes at 29 C. The reaction was stopped by addition of lysis buffer from assay kit. The cAMP-d2 and anti-cAMP cryptate in the lysis buffer detected the level of cAMP left from the PDE hydrolysis reaction. […] Thus, IC50 value of inhibitor can be obtained by plotting inhibitor concentration against PDE activity at that concentration.

[2] = Microsomal half-life / microsomal clearance, rat liver microsomes; assay type: in vitro ADME; conditions: 0.5 μM test substance, 0.25 mg microsomal protein/ml, pH 7.4, 37° C.
Protocol: as §1, §2, §3

rats [3] = conditions: cited from earlier work
rats [4] = conditions: cited from earlier work; remark: listed apart in the source
rats [5] = conditions: cited from earlier work; remark: listed apart in the source

Chain of PDE10A (Q9Y233 whole entry, species assumed, canonical isoform): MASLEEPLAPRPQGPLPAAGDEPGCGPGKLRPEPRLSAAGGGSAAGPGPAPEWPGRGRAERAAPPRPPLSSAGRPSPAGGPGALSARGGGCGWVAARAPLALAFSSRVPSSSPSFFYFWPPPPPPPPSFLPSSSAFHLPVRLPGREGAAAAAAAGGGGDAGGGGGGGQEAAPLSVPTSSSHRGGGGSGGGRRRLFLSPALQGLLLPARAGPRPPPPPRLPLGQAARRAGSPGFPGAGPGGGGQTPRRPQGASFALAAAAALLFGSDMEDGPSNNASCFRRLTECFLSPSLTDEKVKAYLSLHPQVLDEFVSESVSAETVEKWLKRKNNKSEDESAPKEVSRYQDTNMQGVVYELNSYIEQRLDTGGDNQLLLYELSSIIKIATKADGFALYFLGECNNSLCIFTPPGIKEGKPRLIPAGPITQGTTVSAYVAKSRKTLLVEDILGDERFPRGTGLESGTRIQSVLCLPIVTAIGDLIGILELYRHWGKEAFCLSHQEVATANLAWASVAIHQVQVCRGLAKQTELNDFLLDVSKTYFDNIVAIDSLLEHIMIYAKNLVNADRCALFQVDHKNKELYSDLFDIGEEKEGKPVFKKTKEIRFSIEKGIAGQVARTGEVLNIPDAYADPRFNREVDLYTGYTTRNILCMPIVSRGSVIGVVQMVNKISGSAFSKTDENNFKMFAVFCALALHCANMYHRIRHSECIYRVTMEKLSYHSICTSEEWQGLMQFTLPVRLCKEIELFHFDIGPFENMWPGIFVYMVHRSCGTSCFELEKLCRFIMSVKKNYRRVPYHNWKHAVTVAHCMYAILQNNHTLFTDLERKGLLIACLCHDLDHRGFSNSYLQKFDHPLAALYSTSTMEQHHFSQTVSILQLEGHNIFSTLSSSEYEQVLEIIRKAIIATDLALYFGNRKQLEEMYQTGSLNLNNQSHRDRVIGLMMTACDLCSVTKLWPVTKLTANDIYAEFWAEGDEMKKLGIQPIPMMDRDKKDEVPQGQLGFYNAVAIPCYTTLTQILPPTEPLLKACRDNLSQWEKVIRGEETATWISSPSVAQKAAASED

Q: With `Cc1cccc(C#Cc2ccc(-c3c(-c4ccncc4)cnn3C)cc2)n1` [Example 26, 2-methyl-6-[2-[4-[2-methyl-4-(4-pyridyl)pyrazol-3-yl]phenyl]ethynyl]pyridine] as the compound, how does the “Human mCl” value [1] read?
A: ++ (<100 μl min^−1 mg^−1)

Q: And the IC50 (PDE10A)?
A: < 0.1 µM

Q: What about the “Rat mCl” value [2] of the same compound?
A: ++ (<100 μl min^−1 mg^−1)

Q: For `Cc1cccc(C#Cc2ccc(-c3nn(C)cc3-c3ccnn3C)cc2)n1.Cl` [Example 27, 2-methyl-6-[2-[4-[1-methyl-4-(2-methylpyrazol-3-yl)pyrazol-3-yl]phenyl]ethynyl]-pyridine hydrochloride], which “Human mCl” value [1] is on record?
A: ++ (<100 μl min^−1 mg^−1)

Q: What about the IC50 (PDE10A) of the same compound?
A: 0.1 to 0.2 µM

Q: What about the “Rat mCl” value [2] of the same compound?
A: + (100-220 μl min^−1 mg^−1)

Q: With `Cc1cccc(C#Cc2ccc(-c3nn(C)cc3-c3cccnc3)cc2)n1.O=C(O)C(F)(F)F` [Example 29, 2-methyl-6-[2-[4-[1-methyl-4-(3-pyridyl)pyrazol-3-yl]phenyl]ethynyl]pyridine; 2,2,2-trifluoroacetic acid] as the compound, how does the “Human mCl” value [1] read?
A: ++ (<100 μl min^−1 mg^−1)

Q: What about the IC50 (PDE10A) of the same compound?
A: 0.2 to 0.5 µM

Q: And the “Rat mCl” value [2]?
A: ++ (<100 μl min^−1 mg^−1)

Q: For `COc1cc(-c2nn(C)cc2-c2ccncc2)ccc1C#Cc1cccc(C)n1.O=C(O)C(F)(F)F` [Example 32, 2-[2-[2-methoxy-4-[1-methyl-4-(4-pyridyl)pyrazol-3-yl]phenyl]ethynyl]-6-methylpyridine; 2,2,2-trifluoroacetic acid], which “Human mCl” value [1] is on record?
A: ++ (<100 μl min^−1 mg^−1)

Q: What about the IC50 (PDE10A) of the same compound?
A: < 0.1 µM

Q: And the “Rat mCl” value [2]?
A: + (100-220 μl min^−1 mg^−1)

Q: With `COc1ccc(Cc2nccc3cc(OC)c(OC)cc23)cc1OC` [Papaverine, papaverine] as the compound, how does the “catalepsy on its own” value (rats [3]; papaverine alone) read?
A: did not cause catalepsy on its own

Q: And the “cataleptic effect of the D2 receptor antagonist haloperidol” value (rats [3]; with haloperidol)?
A: potentiated the cataleptic effect

Q: And the “reduction of amphetamine-induced hyperactivity” value (rats [4])?
A: insignificant

Q: What about the “hyperactivity induced by PCP” value (rats [5]) of the same compound?
A: reduced hyperactivity

Reference: US9790203B2, “Inhibitor compounds of phosphodiesterase type 10A” (ABBVIE DEUTSCHLAND GMBH & CO. KG, priority 2012, dated 2017)
